Assays:
TLE mice model [1] = assay: Pilocarpine-induced status epilepticus (SE) after 15 days of supplemented diet; type: in vivo, mice (C57BL/6)
Experimental: In this example, the ability of compound embodiments of the present disclosure to increase survival and diminish seizure symptoms in a TLE mice model was evaluated. […] The animals' weights were determined the week before and during the two weeks of c-Abl inhibitors treatment (results are provided in Table 12 and are illustrated graphically in FIG. 28). After 15 days of feeding, status epilepticus (SE) induction was evaluated. The mice were IP injected with Scopolamine (1.5 mg/Kg) and after 15 minutes, the SE was induced by IP injection of Pilocarpine (420 mg/Kg). The animals' behavior and the seizures induction was evaluated according to Racine's scale and the survival was determined during 60 minutes post-SE induction. […] Results are tabulated in Table 13, below and also are illustrated graphically in FIGS. 29A-29D.

TLE mice model [2] = assay: Pilocarpine TLE epilepsy model, IP pre-treatment; settings: 5 mg/Kg IP each day three days before Pilocarpine
Experimental: The injected animals were observed by 60 min after the Pilocarpine.

CML (K562) cell line = assay: K562 cell proliferation inhibition by MTT assay, 48 hours; type: cell-based; settings: K562, 48 hours; for AC50: Homo sapiens, determined in different assays
Experimental: In this example, the ability of two compound embodiments described here, NCGC00373060 and NCGC00373056, to induce cell death in the CML (K562) cell line was evaluated. The leukemia cells were incubated with different concentrations of the compounds for 48 hours, and the cell proliferation inhibition was evaluated by the MTT assay. […] The leukemia cells were incubated with different concentrations of each compound embodiment for 48 hours, and the cell proliferation inhibition was evaluated by the MTT assay.

hippocampal neurons [3] = assay: Neuronal death induced by Glutamate, MTT cell viability test
[4] = Pharmacokinetic profile in plasma; type: in vivo, mice; settings: 12.5 mg/kg IP
Leukemia K562 cell = Leukemia K562 cell proliferation/viability assay (CellTiterGlo, 48 hours); type: cell-based; parameters: unit not given here; settings: K562 cells
Procedure, shortened: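 BCR-Abl-dependent K562 cells treated with compound for 48 hours in an HTS-adapted format. Viability read out with CellTiterGlo reagent.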

[5] = tested on: P. falciparum strain NF54 asexual parasites; assay: Asexual stage parasite growth inhibition, SYBR Green assay, 72 hours; type: cell-based; settings: for % Killing / IC50: NF54, 72 hours; for IC50: Plasmodium falciparum
Experimental: In this example, several of the c-Abl inhibitors were tested in the asexual […] strain of P. falciparum parasites for activity against malaria. […] The pre-diluted parasites were dispensed into a 1536-well plate (2.5 μL/well). […] The fluorescence of each well was measured at 520 nm following excitation at 490 nm using a ViewLux platereader (PerkinElmer).

[6] = Pharmacokinetic profile in brain; type: in vivo, mice; settings: 12.5 mg/kg IP
[7] = tested on: ShSy5y neuroblastome cells; assay: Cholesterol accumulation induced by U18666, Filipin or PFO-GST staining; type: cell-based; settings: U18 0.5 μg/ml 24 hours; NCGC00373060 0.1 and 0.01 μM, Imatinib 10 uM
Experimental: Cells were fixed and then stained with Filipin Staining. […] Cells were fixed and a PFO-GST immunofluorescence was performed.

hippocampal neurons [8] = assay: Neuroprotection against Aβ fibrils, MTT assay; type: cell-based; settings: 0.01, 0.1 and 1 μM; 5 μM Aβ peptide, 24 hours
Experimental: Compound embodiments NCGC00373060 and NCGC00373056 also conferred neuroprotection against Aβ fibrils. […] Additional data from other compounds are provided by FIGS. 8C-8E. Neurons were incubated with 5 μM Aβ peptide in presence of the different compound concentrations for 24 hours and cell viability was evaluated by the MTT assay. Results from additional compounds are provided by FIG. 8C.

neurons = assay: Apoptotic nuclei induced by Aβ fibrils, Hoescht staining; type: cell-based
Experimental: Additional results from another compound embodiment, NCGC00355553, are provided by FIG. 9C. Apoptotic nuclei were evaluated by Hoescht staining.

5XFAD mice = assay: 5XFAD AD mice model, water maze and amyloid burden; type: in vivo; settings: 9-month-old 5XFAD mice, 12.5 mg/kg daily for 30 days, IP
Excerpt: . First, the 5XFAD mice was used as the AD model. […] .

[9] = mean, diet 67 ppm NCGC00373060 or 200 ppm Nilotinib

With `O=C1Nc2cc(OC(F)(F)F)ccc2Oc2ccc(-c3ccnc(N4CCNCC4)c3)cc21` [NCGC00373060, 2-(2-(Piperazin-1-yl)pyridin-4-yl)-8-(trifluoromethoxy)dibenzo[b,j][1,4]oxazepin-11(10H)-one] the Survival % (TLE mice model [1]; individual mice, 60 minutes post-SE induction) was 100%, the “Latency SE” value (TLE mice model [1]; individual mice, diet 67 ppm NCGC00373060 or 200 ppm Nilotinib) was 19 min and the “Survival %, mean” value (TLE mice model [1]; mean, 60 minutes post-SE induction) was 100%. For the same molecule, the “Latency SE, mean” value (TLE mice model [1]; [9]) was 19 min, the “SE %, mean” value (TLE mice model [1]; [9]) was 40% and the “mortality associated to the epileptic status” value (TLE mice model [2]) was “decreases the mortality associated to the epileptic status”. The “seizures, latency time” value (TLE mice model [2]) was “prevented the seizures increasing the latency time”, the AC50 (CML (K562) cell line) was 5000 nM and the “protection against neuronal death induced by Glutamate” value (hippocampal neurons [3]) was “protects neurons against neuronal death induced by Glutamate”. For the same molecule, the Plasma concentration ([4]; Time 0.167) was 4440 nM, the Plasma concentration ([4]; Time 0.5) was 4784 nM and the Plasma concentration ([4]; Time 1) was 7844 nM. The Plasma concentration ([4]; Time 2) was 4112 nM, the Plasma concentration ([4]; Time 4) was 2709 nM and the Plasma concentration ([4]; Time 7) was 1723 nM. For the same molecule, the Plasma concentration ([4]; Time 24) was 581 nM, the Plasma concentration ([4]; Time 48) was 138 nM and the Plasma concentration ([4]; Time 72) was 70 nM. It also gave a Plasma concentration ([4]; Time 96) of 36 nM, a Plasma concentration ([4]; Time 120) of 11 nM and a Plasma concentration ([4]; Time 168) of 4 nM. The Efficacy (Leukemia K562 cell) was −99.1, the “% Killing” value [5] was 89.9% and the IC50 [5] was 1630 nM. The Brain concentration ([6]; Time 0.167) was 0.208 µmol/kg, the Brain concentration ([6]; Time 0.5) was 0.275 µmol/kg and the Brain concentration ([6]; Time 1) was 0.595 µmol/kg. It also gave a Brain concentration ([6]; Time 2) of 0.912 µmol/kg, a Brain concentration ([6]; Time 4) of 1.351 µmol/kg and a Brain concentration ([6]; Time 7) of 1.887 µmol/kg. It also gave a Brain concentration ([6]; Time 24) of 1.198 µmol/kg, a Brain concentration ([6]; Time 48) of 0.493 µmol/kg and a Brain concentration ([6]; Time 72) of 0.208 µmol/kg. The Brain concentration ([6]; Time 96) was 0.089 µmol/kg, the Brain concentration ([6]; Time 120) was 0.044 µmol/kg and the Brain concentration ([6]; Time 168) was 0.010 µmol/kg.

In the case of `Cc1ccc(NC(=O)c2ccc(CN3CCN(C)CC3)cc2)cc1Nc1nccc(-c2cccnc2)n1` [Imatinib], the Efficacy (Leukemia K562 cell) is reported as −105.5, the “% Killing” value [5] is reported as 111.0% and the cholesterol accumulation [7] is reported as “decreased the cholesterol accumulation”.

In the case of `CNS(=O)(=O)c1cccc(-c2ccc3c(c2)C(=O)Nc2cc(OC(F)(F)F)ccc2O3)c1` [NCGC00373056, N-Methyl-3-(11-oxo-8-(trifluoromethoxy)-10H-dihydrodibenzo[b,f][1,4]oxazepin-2-yl)benzenesulfonamide], the “neuroprotection against Aβ toxicity” value (hippocampal neurons [8]) is reported as “protect neurons against the Aβ toxicity”, the AC50 (CML (K562) cell line) is reported as 500 nM and the “induction of cell death” value (CML (K562) cell line; MTT) is reported as “able to induce cell death”. It also gave a Plasma concentration ([4]; Time 0.083) of 12080 nM, a Plasma concentration ([4]; Time 0.25) of 16961 nM and a Plasma concentration ([4]; Time 0.5) of 16559 nM. The Plasma concentration ([4]; Time 1) was 8627 nM, the Plasma concentration ([4]; Time 2) was 6747 nM and the Plasma concentration ([4]; Time 4) was 2600 nM. For the same molecule, the Plasma concentration ([4]; Time 7) was 421 nM, the Plasma concentration ([4]; Time 24) was 9 nM and the Efficacy (Leukemia K562 cell) was −78.5. For the same molecule, the “activity against malaria parasites” value ([5]; NF54) was “low single digit uM range”, the “% Killing” value [5] was 96.5% and the IC50 [5] was 1360 nM. The “apoptotic nuclei induced by Aβ fibrils” value (neurons) was “prevention of the increases in apoptotic nuclei induced by Aβ fibrils”, the Brain concentration ([6]; Time 0.083) was 1.291 µmol/kg and the Brain concentration ([6]; Time 0.25) was 2.649 µmol/kg. For the same molecule, the Brain concentration ([6]; Time 0.5) was 2.658 µmol/kg, the Brain concentration ([6]; Time 1) was 3.381 µmol/kg and the Brain concentration ([6]; Time 2) was 2.212 µmol/kg. For the same molecule, the Brain concentration ([6]; Time 4) was 1.065 µmol/kg, the Brain concentration ([6]; Time 7) was 0.202 µmol/kg and the Brain concentration ([6]; Time 24) was 0.004 µmol/kg. The “cognitive decline, water maze” value (5XFAD mice) was “protected 5XFAD mice against the cognitive decline”.

— patent US11649218B2, “C-Abl tyrosine kinase inhibitory compound embodiments and methods of making and using the same” (The USA, as represented by the Secretary, Dept. of Health …, priority 2018, dated 2023)
